According to paper PMC8583417, “Evaluation of the Antimicrobial Efficacy of N-Acetyl-L-Cysteine, Rhamnolipids, and Usnic Acid—Novel Approaches to Fight Food-Borne Pathogens” (International Journal of Molecular Sciences, 2021):
Values after ≈ are worked out from the molar mass of the structure shown.

What was measured:
S. Infantis S13 [1] = assay: MIC for planktonic cell growth (A625nm); type: cell-based, Salmonella enterica Infantis; details: for MICPC80: ≥80% inhibition, 24 h
Method: (§1) Ten concentrations of NAC, RLs, and UA were tested to determine the minimum inhibitory concentration for planktonic growth, and subsequently, the six highest concentrations were applied on preformed biofilms to evaluate the biofilm eradication ability of the compounds. MIC was defined as the lowest substance concentration able to inhibit at least 80% of microbial growth (MICPC80 for planktonic cells, MICBC80 for further growth of biofilm cells), inhibit 80% of metabolic activity (MICBM80 for biofilm metabolic activity, MICMPB80 for metabolic activity of preformed biofilm), prevent biofilm formation by at least 80% (MICBF80 for biofilm formation), or reduce a preformed biofilm by at least 80% (MICBR80 for biofilm reduction). The results of MICs are summarized in Table 1 (planktonic cells) and Table 2 (biofilm-associated cells).
(§2) The determination of MICs was performed according to Chlumsky et al.. Briefly, 96-well flat-bottomed microtiter plates were inoculated with 75 µL (for biofilm formation) or 100 µL (for preformed biofilm) of bacterial suspension (A625nm 0.08 to 0.1) in technical triplicates and were then carefully mixed with the dilution series of the test substances (24 h cultivation at 25 °C for S. Infantis, 37 °C for other strains) or were directly cultivated to preform biofilms (18 h). For a positive control of bacterial growth, the inoculum was mixed with a pure sterile medium. Furthermore, the sterile medium was included in the plate as a marker of potential microbial contamination. To evaluate planktonic cells growth (MICPC80) and further growth of biofilm cells (MICBC80), the optical density of the content of the microtiter plates was measured spectrophotometrically at 625 nm before and after 24 h (for biofilm formation) of cultivation or before and after additional 20 h incubation with the tested compound (for preformed biofilm). The difference of A625nm was considered as a measure of the ability of cells to grow in the presence of the tested substances. To evaluate the inhibition of biofilm formation (MICBF80) and reduction in preformed biofilms (MICBR80), biomass was quantified using crystal violet staining, and its metabolic activity (MICBM80 and MICMPB80) was estimated by using the MTT (thiazyl tetrazolium bromide, Sigma-Aldrich, USA) reduction assay, both measured spectrophotometrically at 595 nm.
(§3) All inhibitions were calculated using the formula of Chlumsky et al. below (Equation (1)):(1) A625(595)nm inhibition (%)=A625(595)nm (control) – A625(595)nm(natural substance)/A625(595)nm (control)× 100 where A625(595)nm (control) is the absorbance of bacterial suspension/biofilm itself, and A625(595)nm(natural substance) is the absorbance of the bacterial suspension/biofilm with the added natural substance (NAC, RLs, and UA).
(§4) When the minimum inhibitory concentration could not be determined, the MIC was established as >the highest tested concentration for NAC, RLs, and UA.

S. Infantis S59 [2] = assay: MIC for planktonic cell growth (A625nm); type: cell-based, Salmonella enterica Infantis; details: for MICPC80: ≥80% inhibition, 24 h
Method: as §1, §2, §3, §4

S. aureus 1241 = assay: MIC for biofilm formation (crystal violet staining); type: cell-based, Staphylococcus aureus; details: ≥80% prevention, 24 h
Method: as §1
as §2, with “Furthermore, the sterile medium was included in the plate as a marker of potential microbial contamination.” left out, “The difference of A625nm was considered as a measure of the ability of cells to grow in the presence of the tested substances.” left out
as §3, §4

S. aureus 816 [3] = assay: as above; type: cell-based, Staphylococcus aureus; details: ≥80% prevention, 24 h
Method: as §1
as §2, with “Furthermore, the sterile medium was included in the plate as a marker of potential microbial contamination.” left out, “The difference of A625nm was considered as a measure of the ability of cells to grow in the presence of the tested substances.” left out
as §3, §4

S. Infantis S13 [4] = assay: MIC for further growth of biofilm cells, preformed biofilm (A625nm); type: cell-based, Salmonella enterica Infantis; details: for MICBC80: ≥80% inhibition, 18 h preformed biofilm, 20 h with substance
Method: as §1, §2, §3, §4

S. Infantis S59 [5] = assay: as above; type: cell-based, Salmonella enterica Infantis; details: for MICBC80: ≥80% inhibition, 18 h preformed biofilm, 20 h with substance
Method: as §1, §2, §3, §4

[6] = tested on: S. Enteritidis ATCC 13076; assay: as above; type: cell-based, Salmonella enterica Enteritidis; details: for MICBC80: ≥80% inhibition, 18 h preformed biofilm, 20 h with substance
Method: as §1
(§5) The determination of MICs was performed according to Chlumsky et al.. […] To evaluate planktonic cells growth (MICPC80) and further growth of biofilm cells (MICBC80), the optical density of the content of the microtiter plates was measured spectrophotometrically at 625 nm before and after 24 h (for biofilm formation) of cultivation or before and after additional 20 h incubation with the tested compound (for preformed biofilm). […] To evaluate the inhibition of biofilm formation (MICBF80) and reduction in preformed biofilms (MICBR80), biomass was quantified using crystal violet staining, and its metabolic activity (MICBM80 and MICMPB80) was estimated by using the MTT (thiazyl tetrazolium bromide, Sigma-Aldrich, USA) reduction assay, both measured spectrophotometrically at 595 nm.
(§6) All inhibitions were calculated using the formula of Chlumsky et al. below (Equation (1)):(1) A625(595)nm inhibition (%)=A625(595)nm (control) – A625(595)nm(natural substance)/A625(595)nm (control)× 100 where A625(595)nm (control) is the absorbance of bacterial suspension/biofilm itself, and A625(595)nm(natural substance) is the absorbance of the bacterial suspension/biofilm with the added natural substance (NAC, RLs, and UA). […]

L. monocytogenes 149 = assay: MIC for metabolic activity of preformed biofilm (MTT reduction assay); type: cell-based, Listeria monocytogenes; details: ≥80% inhibition, 20 h with substance
Method: as §1
as §2, with “Furthermore, the sterile medium was included in the plate as a marker of potential microbial contamination.” left out, “The difference of A625nm was considered as a measure of the ability of cells to grow in the presence of the tested substances.” left out
as §3, §4

L. monocytogenes 164 = assay: as above; type: cell-based, Listeria monocytogenes; details: ≥80% inhibition, 20 h with substance
Method: as §1
as §2, with “Furthermore, the sterile medium was included in the plate as a marker of potential microbial contamination.” left out, “The difference of A625nm was considered as a measure of the ability of cells to grow in the presence of the tested substances.” left out
as §3, §4

[7] = tested on: S. Enteritidis ATCC 13076; assay: as above; type: cell-based, Salmonella enterica Enteritidis; details: for MICMPB80: ≥80% inhibition, 20 h with substance
Method: as §1, §5, §6

Gram-negative bacteria [8] = assay: Inhibition of planktonic growth, summary over strains; type: cell-based; details: at maximal tested concentration (RLs 1000 µg/mL, UA 31.3 µg/mL)
Method: as §2, with “The difference of A625nm was considered as a measure of the ability of cells to grow in the presence of the tested substances.” left out, “nm. […]” for “nm.”

Gram-negative bacteria [9] = assay: Inhibition of biofilm formation, summary over strains; type: cell-based; details: maximal tested concentration 31.3 µg/mL
Method: as §2, with “The difference of A625nm was considered as a measure of the ability of cells to grow in the presence of the tested substances.” left out, “nm. […]” for “nm.”

Gram-negative bacteria [10] = assay: Inhibition of biofilm metabolic activity, summary over strains; type: cell-based; details: maximal tested concentration 31.3 µg/mL
Method: as §2, with “The difference of A625nm was considered as a measure of the ability of cells to grow in the presence of the tested substances.” left out, “nm. […]” for “nm.”

[11] = tested on: preformed biofilms of Gram-negative bacteria; assay: Inhibition of further growth of biofilm cells, summary over strains; type: cell-based
Method: as §2, with “The difference of A625nm was considered as a measure of the ability of cells to grow in the presence of the tested substances.” left out, “nm. […]” for “nm.”

[12] = tested on: preformed biofilms of Gram-negative bacteria; assay: Inhibition of metabolic activity of preformed biofilm, summary over strains; type: cell-based
Method: as §2, with “The difference of A625nm was considered as a measure of the ability of cells to grow in the presence of the tested substances.” left out, “nm. […]” for “nm.”

Gram-negative bacteria [13] = assay: Reduction of preformed biofilm, summary over strains; type: cell-based
Method: as §2, with “The difference of A625nm was considered as a measure of the ability of cells to grow in the presence of the tested substances.” left out, “nm. […]” for “nm.”

Gram-positive bacteria = assay: as above; type: cell-based; details: Gram-positive strains other than L. monocytogenes 164
Method: as §2, with “The difference of A625nm was considered as a measure of the ability of cells to grow in the presence of the tested substances.” left out, “nm. […]” for “nm.”

S. aureus 1945^GFPuvr = tested on: S. aureus 1945^GFPuvr; set-up: method as in PMID 30151647; details: cited from earlier work
S. aureus 816 [14] = assay: MIC for further growth of biofilm cells, preformed biofilm (A625nm); type: cell-based, Staphylococcus aureus; details: ≥80% inhibition, 18 h preformed biofilm, 20 h with substance
Method: as §1, §5, §6

[15] = tested on: tested food-borne pathogens; assay: MIC for bacterial growth, summary over all tested strains; type: cell-based; details: this study
Method: as §2, with “The difference of A625nm was considered as a measure of the ability of cells to grow in the presence of the tested substances.” left out, “nm. […]” for “nm.”

[16] = tested on: Haemophilus influenza, Pseudomonas aeruginosa, and Streptococcus pneumoniae; set-up: method as in PMID 29234086, PMID 31022884, PMID 27492531; details: clinical pathogens; cited from earlier work
[17] = tested on: Haemophilus influenza, Pseudomonas aeruginosa, and Streptococcus pneumoniae; set-up: method as in PMID 29234086, PMID 31022884, PMID 27492531; details: clinical pathogens; cited from earlier work; remark: listed apart in the source

SMILES | MICPC80 (S. Infantis S13 [1]) [µg/mL] | MICPC80 (S. Infantis S59 [2]) [µg/mL] | MICBF80 (S. aureus 1241) | MICBF80 (S. aureus 816 [3]) [µg/mL] | MICBC80 (S. Infantis S13 [4]) [µg/mL] | MICBC80 (S. Infantis S59 [5]) | MICBC80 [6] [µg/mL] | MICMPB80 (L. monocytogenes 149) [µg/mL] | MICMPB80 (L. monocytogenes 164) [µg/mL] | MICMPB80 [7] | further results
CC(=O)c1c(O)c(C)c(O)c2c1OC1=CC(=O)C(C(C)=O)C(=O)C12C (single isomer, unassigned; (+)) [UA, (+)-usnic acid] | > 31.3 | > 31.3 | 0.24 µg/mL | 0.24 | > 31.3 | > 31.3 µg/mL | > 31.3 | 3.91 | 1.96 | > 31.3 µg/mL | maximal achieved inhibition (MICPC80 not reached) (S. Infantis S13 [1]; within tested concentrations): 25%; maximal achieved inhibition (MICPC80 not reached) (S. Infantis S59 [2]; within tested concentrations): 31%; maximal achieved inhibition (MICBC80 not reached) (S. Infantis S13 [4]; within tested concentrations): 33%; maximal achieved inhibition (MICBC80 not reached) (S. Infantis S59 [5]; within tested concentrations): 31%; maximal achieved inhibition (MICBC80 not reached) ([6]; within tested concentrations): 51%; maximal achieved inhibition (MICMPB80 not reached) ([7]; within tested concentrations): 53%; maximum inhibition of planktonic growth (MICPC80), range over strains (Gram-negative bacteria [8]): 20–42%; maximum inhibition (MICBF80), range over strains (Gram-negative bacteria [9]): 10–47%; maximum inhibition (MICBM80), range over strains (Gram-negative bacteria [10]): 16–47%; maximum observed inhibition of further growth of biofilm cells [11]: up to 61%; maximum observed inhibition of metabolic activity of preformed biofilm [12]: up to 53%; maximum observed reduction of preformed biofilm (Gram-negative bacteria [13]): up to 30%; maximum observed reduction of preformed biofilm, range over strains (Gram-positive bacteria): 35–72%; minimal inhibition concentration, bacterial growth (S. aureus 1945^GFPuvr): 32 µg/mL (≈ 92.9 µM)
CC(=O)N[C@@H](CS)C(=O)O [NAC, N-Acetyl-L-cysteine] | 6250 | 6250 | 12,500 µg/mL | 3130 | 6250 | 12,500 µg/mL | 6250 | 6250 | 6250 | 12,500 µg/mL | MICBC80 (S. aureus 816 [14]): 3130 µg/mL; MIC for bacterial growth, range over strains [15]: 3130–12,500 µg/mL; MIC against bacterial growth [16]: 500 to 2500 µg/mL; MIC needed for biofilm reduction [17]: 2500–10,000 µg/mL
